The values that follow come from patent publication EP3727588B1, “ACTIVATOR PEPTIDES OF THE ENZYME ADAM 10 AND RELATED USES IN THE TREATMENT OF ALZHEIMER'S DISEASE” (UNIVERSITA' DEGLI STUDI DI MILANO, priority 2017, dated 2019).

Peptide text beside a SMILES is read from it.

Data set [1] is described as follows: blood-brain barrier crossing, anti-TAT immunohistochemistry on coronal brain sections. The data set is classed as in vivo. The settings on record: C57BL/6 mice, intraperitoneal injection 3 nmoles/g, 24 hours. The method, then:
For the immunohistochemistry analyses, mice treated with the peptide were anaesthetized deeply and subjected to transcardial perfusion with 4% paraformaldehyde (prepared in PBS, pH 7.2-7.4), through the use of a peristaltic pump. The fixing liquid was inserted into the blood circulation through the left ventricle and after 10 minutes the brain was isolated. The sample was then post-fixed for 1 hour and 30 minutes at 4°C, then washed with PBS 1X and placed o/n in a 30% sucrose solution. The following day the sample was washed again with PBS 1X cut with the vibratome obtaining coronal sections of 50µm. Then the sections were stained through free-floating immunofluorescence technique. The fluorescence images were acquired using the Zeiss Confocal LSM510 Meta system with 63x objective at a resolution of 1024x1024 pixels. […]
The coronal sections were incubated with a specific antibody for the identification of the MAP2 neurons, and an antibody able to recognize the TAT sequence of HIV-1 present in the CPPs. As shown by the arrows in Figure 6, the presence of a specific signal of the anti-TAT antibody can be identified, which can only be detected in the coronal sections of brain of animals treated with CPPs. […] In the brain of animals only treated with saline solution (Figure 6, panel A), such signal cannot be detected.

Data set [2] has as its target T1, ADAM10/AP2 complex (Rattus norvegicus, UniProt P62944).
T1 construct: endogenous in cells; host or cells: primary hippocampal neurons of rat embryos, DIV14
Nature of the data set: co-immunoprecipitation of ADAM10 with AP2 (α-adaptin) in acute hippocampal slices. The format is cell-based. The settings on record: 10 µM, 30 minutes. The method, then:
(§1) The acute hippocampal slices were obtained from rat brain. After carefully removing the meninges, the hippocampus was isolated and dissected using the McIlwain tissue chopper. The hippocampal slices were then transferred into supports containing Krebs buffer, in the presence of a constant flow of 95% O2 and 5% CO2 5% (v/v). The acute slices were kept for 45 min at ambient temperature before proceeding with treatment with the peptide.
(§2) For the treatments of the acute hippocampal slices, all the peptides were diluted in Krebs buffer at a concentration of 10µM. The treatments were performed for 30 minutes and subsequently the sample was immediately frozen.
(§3) For the co-immunoprecipitation experiments, aliquots of 40-100 µg of lysate were incubated at 4°C in RIA 1X buffer (NaCl 200 mM, EDTA 10 mM, Na2HPO4 10 mM, Nonidet P-40, 0.5% and 0.1% SDS) in a final volume of 150 µl with 1-2 µg of antibody. The following day the protein complex A/G (Santa Cruz Biotechnology) was added, conjugated with agarose marbles, and the incubation was continued for 2 hours. After three washes with RIA buffer the samples were loaded onto SDS-PAGE and analysed through Western Blot.
(§4) The quantization of the Western Blot analyses was performed through an image analysis program (ImageLab -BioRad). The levels of proteins were expressed as optical density (OD) related to the different measurements and were normalized on respective tubulin levels.
(§5) The samples were then processed, and the total homogenate was used to evaluate the interaction levels between ADAM10 and the complex AP2. The co-immunoprecipitation experiment (co-IP), performed using an anti-ADAM10 antibody, made it possible to verify that two of the three peptides (PEP2 (SEQ ID NO:2) and PEP3 (SEQ ID NO:1)) were able to interfere with the interaction between ADAM10 and α-adaptin, one of the subunits that constitutes the complex AP2 (Figure 1A).

Data set [3] has as its system T2, ADAM10/AP2 complex (Rattus norvegicus).
T2 construct: endogenous in cells; host or cells: primary hippocampal neurons of rat embryos, DIV14
The data set is described as above. The data set is classed as cell-based. The note with it: 10 µM, 30 min. On the procedure:
as §1, §2, §3, §4, §5

Data set [4] has as its target T1, ADAM10/AP2 complex. Nature of the data set: co-immunoprecipitation of ADAM10 with AP2 subunits in primary cultures of hippocampal neurons. The format is cell-based. The method, then: The primary cultures were prepared from hippocampi of rat embryos as described in [20]. The cultures were grown in media containing Neurobasal (Life Technologies), B27 2% (Life Technologies), GlutaMAX 1% (Life Technologies) and Penicillin/Streptomycin 1% (Pen/Strep; Life Technologies), a 37 °C with 95% humidity and 5% CO2 for 14 days. The cells were treated by diluting the peptides in the complete growth medium, at a final concentration of 1 µM. The treatment was performed for 30 minutes at 37°C, then the neurons were lysed.
as §3, §4
After 30 minutes, the cells were processed and the cell lysate was used for performing the co-IP analyses.

The mark [5] stands for this setting: primary hippocampal neurons DIV 14, 1 µM, 30 minutes.

T1 sequence (P18484 whole entry): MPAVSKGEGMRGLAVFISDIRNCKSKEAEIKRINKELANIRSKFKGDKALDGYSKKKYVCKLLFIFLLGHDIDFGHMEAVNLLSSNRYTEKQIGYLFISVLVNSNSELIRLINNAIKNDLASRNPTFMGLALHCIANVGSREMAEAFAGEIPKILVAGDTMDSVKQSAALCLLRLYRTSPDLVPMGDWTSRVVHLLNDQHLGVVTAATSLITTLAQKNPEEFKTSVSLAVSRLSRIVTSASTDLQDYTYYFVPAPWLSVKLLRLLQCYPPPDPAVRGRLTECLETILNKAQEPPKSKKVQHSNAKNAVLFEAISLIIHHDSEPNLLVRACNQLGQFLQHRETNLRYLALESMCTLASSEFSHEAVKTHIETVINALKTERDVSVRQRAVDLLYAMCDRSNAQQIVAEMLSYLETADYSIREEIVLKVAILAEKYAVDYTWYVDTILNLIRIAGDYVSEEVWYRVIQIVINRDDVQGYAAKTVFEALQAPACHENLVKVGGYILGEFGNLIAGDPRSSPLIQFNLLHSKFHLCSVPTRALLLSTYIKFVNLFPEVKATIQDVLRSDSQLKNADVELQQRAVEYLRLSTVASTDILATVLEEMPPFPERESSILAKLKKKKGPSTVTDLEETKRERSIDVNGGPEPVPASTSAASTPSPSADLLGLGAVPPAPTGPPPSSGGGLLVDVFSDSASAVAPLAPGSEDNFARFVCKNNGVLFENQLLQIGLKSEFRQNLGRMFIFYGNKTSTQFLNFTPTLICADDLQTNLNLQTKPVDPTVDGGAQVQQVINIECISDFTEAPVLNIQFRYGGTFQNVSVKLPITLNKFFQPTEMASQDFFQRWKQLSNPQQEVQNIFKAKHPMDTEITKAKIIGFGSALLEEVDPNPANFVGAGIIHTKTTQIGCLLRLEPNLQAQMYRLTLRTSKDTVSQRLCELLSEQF
T1 sequence (P62744 whole entry, further chain): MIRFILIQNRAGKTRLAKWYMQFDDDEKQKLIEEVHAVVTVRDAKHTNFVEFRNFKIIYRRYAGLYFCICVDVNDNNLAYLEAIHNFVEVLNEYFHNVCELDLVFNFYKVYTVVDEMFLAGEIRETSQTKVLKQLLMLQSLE
T1 sequence (P84092 whole entry, further chain): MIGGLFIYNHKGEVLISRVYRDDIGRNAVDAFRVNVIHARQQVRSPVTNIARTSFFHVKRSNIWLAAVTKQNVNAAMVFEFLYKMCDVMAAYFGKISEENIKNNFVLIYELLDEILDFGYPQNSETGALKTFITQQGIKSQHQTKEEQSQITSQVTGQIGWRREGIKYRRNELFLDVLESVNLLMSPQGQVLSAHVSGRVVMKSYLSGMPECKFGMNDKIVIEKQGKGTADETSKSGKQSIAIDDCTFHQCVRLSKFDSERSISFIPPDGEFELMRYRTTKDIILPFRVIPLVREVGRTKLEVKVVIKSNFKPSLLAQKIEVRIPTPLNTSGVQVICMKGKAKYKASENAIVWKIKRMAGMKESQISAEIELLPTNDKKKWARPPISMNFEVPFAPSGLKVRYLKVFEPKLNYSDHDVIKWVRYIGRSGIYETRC
T1 sequence (P62944 whole entry): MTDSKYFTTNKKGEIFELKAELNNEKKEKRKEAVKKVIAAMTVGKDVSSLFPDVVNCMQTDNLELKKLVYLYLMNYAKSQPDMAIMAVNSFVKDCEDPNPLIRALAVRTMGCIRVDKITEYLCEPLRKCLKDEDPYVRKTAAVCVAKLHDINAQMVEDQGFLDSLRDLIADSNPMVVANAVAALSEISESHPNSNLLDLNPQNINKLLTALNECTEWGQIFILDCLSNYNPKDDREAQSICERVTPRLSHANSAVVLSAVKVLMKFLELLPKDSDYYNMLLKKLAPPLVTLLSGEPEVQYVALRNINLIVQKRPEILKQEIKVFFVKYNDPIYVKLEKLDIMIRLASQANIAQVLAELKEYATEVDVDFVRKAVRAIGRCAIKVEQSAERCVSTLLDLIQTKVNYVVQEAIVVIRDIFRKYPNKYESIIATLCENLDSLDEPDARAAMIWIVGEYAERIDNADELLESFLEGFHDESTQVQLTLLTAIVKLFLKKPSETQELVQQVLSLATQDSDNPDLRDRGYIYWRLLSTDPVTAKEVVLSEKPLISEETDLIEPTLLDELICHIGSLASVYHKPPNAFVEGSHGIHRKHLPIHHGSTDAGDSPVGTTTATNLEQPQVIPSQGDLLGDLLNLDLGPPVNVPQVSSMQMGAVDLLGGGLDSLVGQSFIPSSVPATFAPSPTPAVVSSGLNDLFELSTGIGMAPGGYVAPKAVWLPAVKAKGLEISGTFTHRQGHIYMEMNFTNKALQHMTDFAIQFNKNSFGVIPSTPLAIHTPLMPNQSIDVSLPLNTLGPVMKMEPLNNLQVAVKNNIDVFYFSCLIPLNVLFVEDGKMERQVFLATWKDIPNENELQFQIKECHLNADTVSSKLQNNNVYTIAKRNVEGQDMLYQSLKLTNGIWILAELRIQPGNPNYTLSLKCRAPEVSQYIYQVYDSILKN
T2 sequence (P18484 whole entry): as the sequence (P18484 whole entry) above
T2 sequence (P62744 whole entry, further chain): as the sequence (P62744 whole entry, further chain) above
T2 sequence (P84092 whole entry, further chain): as the sequence (P84092 whole entry, further chain) above
T2 sequence (P62944 whole entry, further chain): as the sequence (P62944 whole entry) above

On to `CC(C)C[C@H](NC(=O)[C@H](CCCNC(=N)N)NC(=O)[C@@H]1CCCN1C(=O)[C@H](CCCNC(=N)N)NC(=O)[C@H](CCC(N)=O)NC(=O)[C@H](CCCNC(=N)N)NC(=O)[C@@H]1CCCN1C(=O)[C@@H]1CCCN1C(=O)[C@H](CC(C)C)NC(=O)CNC(=O)[C@H](CO)NC(=O)CNC(=O)CNC(=O)[C@H](CCCNC(=N)N)NC(=O)[C@H](CCCNC(=N)N)NC(=O)[C@H](CCCNC(=N)N)NC(=O)[C@H](CCC(N)=O)NC(=O)[C@H](CCCNC(=N)N)NC(=O)[C@H](CCCNC(=N)N)NC(=O)[C@H](CCCCN)NC(=O)[C@H](CCCCN)NC(=O)[C@H](CCCNC(=N)N)NC(=O)CNC(=O)[C@@H](N)Cc1ccc(O)cc1)C(=O)O` [PEP2] (H-YGRKKRRQRRRGGSGLPPRQRPRL-OH), for which, in data set [1], the “capacity to cross the blood-brain barrier (BBB)” value was “can cross the BBB and penetrate into the neuron cells”. Besides, the “reduction of the interaction between ADAM10 and α-adaptin” value on ADAM10/AP2 complex [2] was 58.4%. Further, the “PEP/inPEP ratio of optical density (OD), ADAM10/AP2 complex (α-adaptin)” value in data set [3] came to 41.60 ± 23.86%. In addition, the “PEP/inPEP OD, ADAM10/AP2 complex, µ2” value on ADAM10/AP2 complex [4] (primary cultures of neurons, 1µM, 30 min) is recorded as 52.01 ± 3.77%. On ADAM10/AP2 complex [4] (setting [5]), the “reduction in the levels of interaction between ADAM10 and the complex AP2, subunit µ2” value is recorded as 48%; the “reduction in the levels of interaction between ADAM10 and the complex AP2, subunit α-adaptin” value came out at 66%.
